The subject of one experiment is Molt-4 cells. Nature of the experiment: Cell viability counter screen (CellTiter-Glo) in Molt-4 cells. The following applies: 24 hours, 10% Human Serum. Format: cell-based. An outline of the steps: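 3000 cells/well (0.1×10^6/mL) were treated with compound for 24 hours in 5% CO2. Viability read by CellTiter-Glo luminescence; Molt-4 (T-ALL) served as the counter screen to RS4;11 (ALL).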
For orientation: Counterscreens check selectivity or assay interference.

Another experiment deals with Bcl-xL protein (Homo sapiens (Human), UniProt Q07817). Description: TR-FRET binding assay, Bcl-xL. The following applies: F-Bak peptide probe.
Sequence of Bcl-xL protein (Q07817 other isoform, or with tags, fused parts or gaps): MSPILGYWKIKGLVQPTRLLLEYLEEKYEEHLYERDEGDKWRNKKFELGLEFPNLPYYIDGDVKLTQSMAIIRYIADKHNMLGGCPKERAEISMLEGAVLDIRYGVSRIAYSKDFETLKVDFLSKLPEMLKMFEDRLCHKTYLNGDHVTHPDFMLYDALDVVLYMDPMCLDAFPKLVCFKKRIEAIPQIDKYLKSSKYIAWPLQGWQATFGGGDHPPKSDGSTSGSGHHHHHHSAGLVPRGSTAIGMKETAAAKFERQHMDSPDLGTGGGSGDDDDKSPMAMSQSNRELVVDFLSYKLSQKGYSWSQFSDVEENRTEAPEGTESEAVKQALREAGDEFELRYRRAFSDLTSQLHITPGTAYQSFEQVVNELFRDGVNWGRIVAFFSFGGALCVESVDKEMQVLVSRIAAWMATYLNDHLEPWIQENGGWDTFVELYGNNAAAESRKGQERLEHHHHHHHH
For the next experiment, the system named is RS4;11 cells. Nature of the experiment: Cell viability assay (CellTiter-Glo) in RS4;11 cells. To be noted: 24 hours, 10% Human Serum. Type of experiment: cell-based. Here is the method: The acute lymphoblastic leukemia (ALL) human cell line RS4;11 (ATCC, Manassas VA) was used as the primary human cell line to assess the cellular activity of compound of the present Examples in vitro and their efficacy in vivo. […] The acute lymphoblastic leukemia cell line Molt-4, which is derived from immature T-lymphoid cells (T-ALL), was used as a counter screen assay.
3000 Cells (0.1×10^6/mL) were seeded in each well of 384-well plate and were treated for 24 hours in a humidified chamber with 5% CO2. Cell viability was determined by CellTiter-Glo as described by the manufacturer's instructions (Promega Corporation, Madison, WI, USA).
(In ATP-based viability assays light output follows the ATP content of the culture.)

Another experiment deals with Bcl-2 protein (Homo sapiens (Human), UniProt P10415). Nature of the experiment: TR-FRET binding assay, Bcl-2. The following applies: F-Bak peptide probe, GST-Bcl-2. A general note: Time-resolved FRET reads energy transfer from a long-lived donor to a nearby acceptor.
Sequence of Bcl-2 protein (P10415 other isoform, or with tags, fused parts or gaps): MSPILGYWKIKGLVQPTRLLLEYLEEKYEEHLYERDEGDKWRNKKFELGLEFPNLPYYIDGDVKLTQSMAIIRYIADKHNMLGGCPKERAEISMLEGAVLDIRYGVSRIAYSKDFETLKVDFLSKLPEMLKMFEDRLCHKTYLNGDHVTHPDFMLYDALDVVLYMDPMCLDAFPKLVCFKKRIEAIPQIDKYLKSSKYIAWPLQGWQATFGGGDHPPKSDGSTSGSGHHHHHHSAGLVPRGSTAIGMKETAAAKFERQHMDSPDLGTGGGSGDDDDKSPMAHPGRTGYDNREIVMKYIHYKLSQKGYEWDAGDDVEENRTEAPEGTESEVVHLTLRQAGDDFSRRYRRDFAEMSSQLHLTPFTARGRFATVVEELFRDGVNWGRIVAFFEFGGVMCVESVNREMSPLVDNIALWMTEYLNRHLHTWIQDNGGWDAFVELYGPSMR

In general, EC50 refers to the concentration that produces a half-maximal response. One may read the Ki as the dissociation constant of the complex between target and ligand, obtained from inhibition or displacement. Read a high Ki as a looser hold on the target.

In the case of `CC1(C)CC(c2ccc(Cl)cc2)=C2CN3CCN(c4ccc(C(=O)NS(=O)(=O)c5ccc(NCC6(O)COC6)c([N+](=O)[O-])c5)c(N5CCCOc6nc7[nH]ccc7cc65)c4)C[C@H]3COCCCO[C@@H]2C1` [Example 17, 4-((4aS,10aR)-14-(4-chlorophenyl)-12,12-dimethyl-1,2,4a,5,8,9,10a,11,13,15-decahydro-7H,12H-benzo[f]pyrazino[2,1-c][1,8]dioxa[4]azacycloundecin-3(4H)-yl)-2-(3,4-dihydro-2H-pyrrolo[3′,2′:5,6]pyrido[2,3-b][1,4]oxazepin-1(7H)-yl)-N-((4-(((3-hydroxyoxetan-3-yl)methyl)amino)-3-nitrophenyl)sulfonyl)benzamide], the EC50 was 723 nM in the experiment with Molt-4 cells and 2.82 nM in the experiment with RS4;11 cells. Besides, the Ki on Bcl-xL protein is 6.31 nM; on Bcl-2 protein, 0.761 nM.
The corresponding values for `CC1(C)CC(c2ccc(Cl)cc2)=C2CN3CCN(c4ccc(C(=O)NS(=O)(=O)c5ccc(NCC6(O)CCOCC6)c([N+](=O)[O-])c5)c(N5CCCOc6nc7[nH]ccc7cc65)c4)C[C@H]3COCCCO[C@@H]2C1` [Example 18, 4-((4aS,10aR)-14-(4-chlorophenyl)-12,12-dimethyl-1,2,4a,5,8,9,10a,11,13,15-decahydro-7H,12H-benzo[f]pyrazino[2,1-c][1,8]dioxa[4]azacycloundecin-3(4H)-yl)-2-(3,4-dihydro-2H-pyrrolo[3′,2′:5,6]pyrido[2,3-b][1,4]oxazepin-1(7H)-yl)-N-((4-(((4-hydroxytetrahydro-2H-pyran-4-yl)methyl)amino)-3-nitrophenyl)sulfonyl)benzamide] are 426 nM, 1.43 nM, 8.31 nM and 0.223 nM.
As to `CC1(C)CC(c2ccc(Cl)cc2)=C2CN3CCN(c4ccc(C(=O)NS(=O)(=O)c5ccc(OCC6(F)CCN(C7COC7)CC6)c([N+](=O)[O-])c5)c(N5CCCOc6nc7[nH]ccc7cc65)c4)C[C@H]3COCCCO[C@@H]2C1` [Example 19, 4-((4aS,10aR)-14-(4-chlorophenyl)-12,12-dimethyl-1,2,4a,5,8,9,10a,11,13,15-decahydro-7H,12H-benzo[f]pyrazino[2,1-c][1,8]dioxa[4]azacycloundecin-3(4H)-yl)-2-(3,4-dihydro-2H-pyrrolo[3′,2′:5,6]pyrido[2,3-b][1,4]oxazepin-1(7H)-yl)-N-((4-((4-fluoro-1-(oxetan-3-yl)piperidin-4-yl)methoxy)-3-nitrophenyl)sulfonyl)benzamide], the EC50 in the experiment with Molt-4 cells worked out at 132 nM; in the experiment on RS4;11 cells it was 0.881 nM. In addition, the Ki at Bcl-xL protein worked out at 2.23 nM; on Bcl-2 protein it was 0.475 nM.
The like results for `C[C@@H]1CO[C@@H](COc2ccc(S(=O)(=O)NC(=O)c3ccc(N4CCN5CC6=C(c7ccc(Cl)cc7)CC(C)(C)C[C@H]6OCCCOC[C@@H]5C4)cc3N3CCCOc4nc5[nH]ccc5cc43)cc2[N+](=O)[O-])CO1` [Example 20, 4-((4aS,10aR)-14-(4-chlorophenyl)-12,12-dimethyl-1,2,4a,5,8,9,10a,11,13,15-decahydro-7H,12H-benzo[f]pyrazino[2,1-c][1,8]dioxa[4]azacycloundecin-3(4H)-yl)-2-(3,4-dihydro-2H-pyrrolo[3′,2′:5,6]pyrido[2,3-b][1,4]oxazepin-1(7H)-yl)-N-((4-(((2R,5R)-5-methyl-1,4-dioxan-2-yl)methoxy)-3-nitrophenyl)sulfonyl)benzamide] were, in that order, 1610 nM, 5.21 nM, 17.3 nM and 0.977 nM.
The corresponding values for `CO[C@H]1C[C@@H](CNc2ccc(S(=O)(=O)NC(=O)c3ccc(N4CCN5CC6=C(c7ccc(Cl)cc7)CC(C)(C)C[C@H]6OCCCOC[C@@H]5C4)cc3N3CCCOc4nc5[nH]ccc5cc43)cc2[N+](=O)[O-])C1` [Example 24, 4-((4aS,10aR)-14-(4-chlorophenyl)-12,12-dimethyl-1,2,4a,5,8,9,10a,11,13,15-decahydro-7H,12H-benzo[f]pyrazino[2,1-c][1,8]dioxa[4]azacycloundecin-3(4H)-yl)-2-(3,4-dihydro-2H-pyrrolo[3′,2′:5,6]pyrido[2,3-b][1,4]oxazepin-1(7H)-yl)-N-((4-((((1s,3s)-3-methoxycyclobutyl)methyl)amino)-3-nitrophenyl)sulfonyl)benzamide] are greater than 10000 nM, 4.9 nM, 10.3 nM and 0.248 nM.
As for `CC1(C)CC(c2ccc(Cl)cc2)=C2CN3CCN(c4ccc(C(=O)NS(=O)(=O)c5ccc(NC[C@H]6CC[C@H](N7CCOCC7)CC6)c([N+](=O)[O-])c5)c(N5CCCOc6nc7[nH]ccc7cc65)c4)C[C@H]3COCCCO[C@@H]2C1` [Example 28, 4-((4aS,10aR)-14-(4-chlorophenyl)-12,12-dimethyl-1,2,4a,5,8,9,10a,11,13,15-decahydro-7H,12H-benzo[f]pyrazino[2,1-c][1,8]dioxa[4]azacycloundecin-3(4H)-yl)-2-(3,4-dihydro-2H-pyrrolo[3′,2′:5,6]pyrido[2,3-b][1,4]oxazepin-1(7H)-yl)-N-((4-((((1r,4r)-4-morpholinocyclohexyl)methyl)amino)-3-nitrophenyl)sulfonyl)benzamide], the EC50 in the experiment on Molt-4 cells stood at 274 nM; in the experiment on RS4;11 cells, 0.862 nM. The results for the Ki on Bcl-xL protein and on Bcl-2 protein were 4.71 nM and 0.833 nM, respectively.
The corresponding values for `CO[C@H]1C[C@H](Nc2ccc(S(=O)(=O)NC(=O)c3ccc(N4CCN5CC6=C(c7ccc(Cl)cc7)CC(C)(C)C[C@H]6OCCCOC[C@@H]5C4)cc3N3CCCOc4nc5[nH]ccc5cc43)cc2[N+](=O)[O-])C1` [Example 30, 4-((4aS,10aR)-14-(4-chlorophenyl)-12,12-dimethyl-1,2,4a,5,8,9,10a,11,13,15-decahydro-7H,12H-benzo[f]pyrazino[2,1-c][1,8]dioxa[4]azacycloundecin-3(4H)-yl)-2-(3,4-dihydro-2H-pyrrolo[3′,2′:5,6]pyrido[2,3-b][1,4]oxazepin-1(7H)-yl)-N-((4-(((1r,3r)-3-methoxycyclobutyl)amino)-3-nitrophenyl)sulfonyl)benzamide] are greater than 10000 nM, 4.1 nM, 39 nM and 2.58 nM.
The corresponding values for `CN1CCC(Nc2ccc(S(=O)(=O)NC(=O)c3ccc(N4CCN5CC6=C(c7ccc(Cl)cc7)CC(C)(C)C[C@H]6OCCCOC[C@@H]5C4)cc3N3CCCOc4nc5[nH]ccc5cc43)cc2[N+](=O)[O-])CC1` [Example 31, 4-((4aS,10aR)-14-(4-chlorophenyl)-12,12-dimethyl-1,2,4a,5,8,9,10a,11,13,15-decahydro-7H,12H-benzo[f]pyrazino[2,1-c][1,8]dioxa[4]azacycloundecin-3(4H)-yl)-2-(3,4-dihydro-2H-pyrrolo[3′,2′:5,6]pyrido[2,3-b][1,4]oxazepin-1(7H)-yl)-N-((4-((1-methylpiperidin-4-yl)amino)-3-nitrophenyl)sulfonyl)benzamide] are 1220 nM, 3.24 nM, 5.75 nM and 0.51 nM.

The record behind these values is patent publication US20250066388A1, “1,3,4,7-TETRAHYDRO-2H-PYRROLO[3',2':5,6]PYRIDO[2,3-B][1,4]OXAZEPINE BCL-2 INHIBITORS” (AbbVie Inc., priority 2022, published 2025).
